# Laboratory results published in patent US12203089B2, “Plants having increased tolerance to herbicides” (BASF SE, priority 2015, dated 2025).
# What was measured:
# Type in all cases: in vivo
# [1] = tested on: Arabidopsis thaliana expressing AtCesA1_G1009D_G1013R (SEQ ID 1); assay: 48-well plate growth inhibition, T2 seeds, tolerance factor; conditions: based on IC50 values of growth inhibition, seven to ten days after seeding
# Description: (§1) Transgenic Arabidopsis thaliana plants (T2) are assayed for improved tolerance to azine herbicides like e. g. 6-cyclopentyl-N4-(2,3,4,5,6-pentafluorophenyl)-1,3,5-triazine-2,4-diamine in 48-well plates. Therefore, T2 seeds are surface sterilized by stirring for 5 min in ethanol+water (70+30 by volume), rinsing one time with ethanol+water (70+30 by volume) and two times with sterile, deionized water. The seeds are resuspended in 0.1% agar dissolved in water (w/v) Four to five seeds per well are plated on solid nutrient medium consisting of half-strength murashige skoog nutrient solution, pH 5.8 (Murashige and Skoog (1962) Physiologia Plantarum 15: 473-497). Compounds are dissolved in dimethylsulfoxid (DMSO) and added to the medium prior solidification (final DMSO concentration 0.1%). Multi well plates are incubated in a growth chamber at 22° C., 75% relative humidity and 110 μmol Phot*m^−2*s^−1 with 14:10 h light:dark photoperiod. Growth inhibition is evaluated seven to ten days after seeding in comparison to wild type plants. Tolerance factors are calculated based on IC50 values of growth inhibition of transformed versus non-transformed Arabidopsis plants.
# [2] = tested on: Arabidopsis thaliana expressing AtCesA3_S983F_S1037F (SEQ ID 3); assay: as above; conditions: based on IC50 values of growth inhibition, seven to ten days after seeding
# Description: as §1
# [3] = tested on: Arabidopsis thaliana expressing AtCesA3_S983F_S1040L (SEQ ID 3); assay: as above; conditions: based on IC50 values of growth inhibition, seven to ten days after seeding
# Description: as §1
# [4] = tested on: Arabidopsis thaliana expressing AtCesA3_wt (SEQ ID 3); assay: as above; conditions: based on IC50 values of growth inhibition, seven to ten days after seeding
# Description: as §1
# [5] = tested on: Arabidopsis thaliana expressing AtCesA1_wt (SEQ ID 1); assay: as above; conditions: based on IC50 values of growth inhibition, seven to ten days after seeding
# Description: as §1
# [6] = tested on: Arabidopsis thaliana expressing AtCesA1_P1010L_G1013R (SEQ ID 1); assay: as above; conditions: based on IC50 values of growth inhibition, seven to ten days after seeding
# Description: as §1
# [7] = tested on: Brassica napus expressing BnaAnng01240D (SEQ ID 20) variant S1038F; assay: 6-well plate injury test, T1 seeds on vermiculite; conditions: 7 days after treatment
# Description: Transgenic Brassica napus plants are assayed for improved tolerance to azine herbicides like e. g. 6-cyclopentyl-N4-(2,3,4,5,6-pentafluorophenyl)-1,3,5-triazine-2,4-diamine in 6-well plates. Therefore, 5-6 T1 seeds are sown on vermiculite and watered with half-strength murashige skoog nutrient solution, pH 5.8 (Murashige and Skoog (1962) Physiologia Plantarum 15: 473-497). Compounds are dissolved in dimethylsulfoxid (DMSO) and added to the medium (final DMSO concentration 0.1%). Multi well plates are incubated in a growth chamber at 22° C., 75% relative humidity and 110 μmol Phot*m^−2*s^−1 with 14: 10 h light: dark photoperiod. Growth inhibition is evaluated seven to ten days after seeding in comparison to wild type plants. Plant injury is rated on a scale of 0% to 100%, 0% being no injury and 100% being complete death.
# [8] = tested on: Brassica napus expressing BnaA01g04600D (SEQ ID 21) variant G1012R; assay: Greenhouse herbicide tolerance, post emergent; conditions: 7 days after treatment
# Description: (§2) T1/T2 transgenic plants of Brassica napus containing cellulose synthase sequences or mutated gene variants thereof are tested for improved tolerance to herbicides in greenhouse studies with azine herbicides. For the pre-emergence treatment, the herbicides are applied directly after sowing by means of finely distributing nozzles. The containers are irrigated gently to promote germination and growth and subsequently covered with transparent plastic hoods until the plants have rooted. This cover causes uniform germination of the test plants, unless this has been impaired by the herbicides. For post emergence treatment, the test plants are first grown to a height of 3 to 15 cm, depending on the plant habit, and only then treated with the herbicides. For this purpose, the test plants are either sown directly, and grown in the same containers or they are first grown separately and transplanted into the test containers a few days prior to treatment.
# (§3) Herbicide injury evaluations are taken at 1, 2 and 3 weeks after treatment. Plant biomass reduction is rated on a scale of 0% to 100%, 0% being no reduction of biomass compared to untreated control, and 100% being complete absence of biomass.
# [9] = tested on: Brassica napus expressing BnaA03g55200D (SEQ ID 12) variant S1038F; assay: Greenhouse herbicide tolerance, post emergent; conditions: 7 days after treatment
# Description: as §2, §3
# Brassica napus wildtype = assay: Greenhouse herbicide tolerance, post emergent; conditions: 7 days after treatment
# Description: as §2, §3
# [10] = tested on: Brassica napus expressing BnaA03g55200D (SEQ ID 12) variant S1041L; assay: Greenhouse herbicide tolerance, post emergent; conditions: 7 days after treatment
# Description: as §2, §3
# [11] = tested on: Brassica napus expressing BnaAnng01240D (SEQ ID 20) variant S1038F; assay: Greenhouse herbicide tolerance, post emergent; conditions: 7 days after treatment
# Description: as §2, §3
# [12] = tested on: Brassica napus expressing BnaA03g52020D (SEQ ID 15) variant G1015R; assay: Greenhouse herbicide tolerance, post emergent; conditions: 7 days after treatment
# Description: as §2, §3
# [13] = BnaAnng01240D S1038F event 1, 5*10^-8M
# [14] = BnaAnng01240D S1038F event 1, 10^-6M
# [15] = BnaAnng01240D S1038F event 1, 10^-7M
# [16] = BnaAnng01240D S1038F event 1, 10^-8M
compound,measurement,setting,value
"Nc1nc(Nc2c(F)c(F)c(F)c(F)c2F)nc(C2CCCC2)n1 [6-cyclopentyl-N4-(2,3,4,5,6-pentafluorophenyl)-1,3,5-triazine-2,4-diamine]",Relative tolerance rate as compared to non-transgenic Arabidopsis plants (non-transgenic = 1.0),[1],1
same,Relative tolerance rate as compared to non-transgenic Arabidopsis plants (non-transgenic = 1.0),[2],10
same,Relative tolerance rate as compared to non-transgenic Arabidopsis plants (non-transgenic = 1.0),[3],10
same,Relative tolerance rate as compared to non-transgenic Arabidopsis plants (non-transgenic = 1.0),[4],1
same,Relative tolerance rate as compared to non-transgenic Arabidopsis plants (non-transgenic = 1.0),[5],1
same,Relative tolerance rate as compared to non-transgenic Arabidopsis plants (non-transgenic = 1.0),[6],30
same,average phytotox value,[7]; [13],50%
same,average phytotox value,[7]; [14],80%
same,average phytotox value,[7]; [15],60%
same,average phytotox value,[7]; [16],0%
same,average phytotox value,"[7]; BnaAnng01240D S1038F event 1, 10^-9M",0%
same,average phytotox value,"[7]; BnaAnng01240D S1038F event 2, 5*10^-8M",65%
same,average phytotox value,"[7]; BnaAnng01240D S1038F event 2, 10^-6M",80%
same,average phytotox value,"[7]; BnaAnng01240D S1038F event 2, 10^-7M",65%
same,average phytotox value,"[7]; BnaAnng01240D S1038F event 2, 10^-8M",0%
same,average phytotox value,"[7]; BnaAnng01240D S1038F event 2, 10^-9M",0%
same,average phytotox value,[8]; 3.9 g/ha,17%
same,average phytotox value,[8]; 7.8 g/ha,35%
same,average phytotox value,[8]; 15.6 g/ha,35%
same,average phytotox value,[8]; 31.25 g/ha,60%
same,average phytotox value,"[9]; 1st listed line, 3.9 g/ha",23%
same,average phytotox value,"[9]; 1st listed line, 7.8 g/ha",25%
same,average phytotox value,"[9]; 1st listed line, 15.6 g/ha",29%
same,average phytotox value,"[9]; 1st listed line, 31.25 g/ha",34%
same,average phytotox value,"[9]; 2nd listed line, 3.9 g/ha",7%
same,average phytotox value,"[9]; 2nd listed line, 7.8 g/ha",19%
same,average phytotox value,"[9]; 2nd listed line, 15.6 g/ha",20%
same,average phytotox value,"[9]; 2nd listed line, 31.25 g/ha",44%
same,average phytotox value,Brassica napus wildtype; 3.9 g/ha,23%
same,average phytotox value,Brassica napus wildtype; 7.8 g/ha,34%
same,average phytotox value,Brassica napus wildtype; 15.6 g/ha,59%
same,average phytotox value,Brassica napus wildtype; 31.25 g/ha,73%
same,average phytotox value,[10]; 3.9 g/ha,15%
same,average phytotox value,[10]; 7.8 g/ha,27%
same,average phytotox value,[10]; 15.6 g/ha,42%
same,average phytotox value,[10]; 31.25 g/ha,51%
same,average phytotox value,"[11]; 1st listed line, 3.9 g/ha",1%
same,average phytotox value,"[11]; 1st listed line, 7.8 g/ha",5%
same,average phytotox value,"[11]; 1st listed line, 15.6 g/ha",8%
same,average phytotox value,"[11]; 1st listed line, 31.25 g/ha",27%
same,average phytotox value,"[11]; 2nd listed line, 3.9 g/ha",1%
same,average phytotox value,"[11]; 2nd listed line, 7.8 g/ha",10%
same,average phytotox value,"[11]; 2nd listed line, 15.6 g/ha",41%
same,average phytotox value,"[11]; 2nd listed line, 31.25 g/ha",50%
same,average phytotox value,"[12]; 1st listed line, 3.9 g/ha",18%
same,average phytotox value,"[12]; 1st listed line, 7.8 g/ha",43%
same,average phytotox value,"[12]; 1st listed line, 15.6 g/ha",41%
same,average phytotox value,"[12]; 1st listed line, 31.25 g/ha",53%
same,average phytotox value,"[12]; 2nd listed line, 3.9 g/ha",37%
same,average phytotox value,"[12]; 2nd listed line, 7.8 g/ha",61%
same,average phytotox value,"[12]; 2nd listed line, 15.6 g/ha",45%
same,average phytotox value,"[12]; 2nd listed line, 31.25 g/ha",67%
"Nc1nc(Nc2nc(F)c(F)c(Cl)c2F)nc(C2(F)CCCC2)n1 [N2-(4-chloro-3,5,6-trifluoro-2-pyridyl)-6-(1-fluorocyclopentyl)-1,3,5-triazine-2,4-diamine]",Relative tolerance rate as compared to non-transgenic Arabidopsis plants (non-transgenic = 1.0),[1],1
same,Relative tolerance rate as compared to non-transgenic Arabidopsis plants (non-transgenic = 1.0),[2],5
same,Relative tolerance rate as compared to non-transgenic Arabidopsis plants (non-transgenic = 1.0),[3],4
same,Relative tolerance rate as compared to non-transgenic Arabidopsis plants (non-transgenic = 1.0),[4],1
same,Relative tolerance rate as compared to non-transgenic Arabidopsis plants (non-transgenic = 1.0),[5],2
same,Relative tolerance rate as compared to non-transgenic Arabidopsis plants (non-transgenic = 1.0),[6],1
same,average phytotox value,"[7]; BnaAnng01240D S1038F event 1, 5*10-7",30%
same,average phytotox value,[7]; [13],5%
same,average phytotox value,[7]; [14],85%
same,average phytotox value,[7]; [15],30%
same,average phytotox value,[7]; [16],0%
same,average phytotox value,[8]; 7.8 g/ha,34%
same,average phytotox value,[8]; 15.6 g/ha,61%
same,average phytotox value,[8]; 31.25 g/ha,65%
same,average phytotox value,[8]; 62.5 g/ha,72%
same,average phytotox value,"[9]; 1st listed line, 7.8 g/ha",8%
same,average phytotox value,"[9]; 1st listed line, 15.6 g/ha",6%
same,average phytotox value,"[9]; 1st listed line, 31.25 g/ha",47%
same,average phytotox value,"[9]; 1st listed line, 62.5 g/ha",54%
same,average phytotox value,"[9]; 2nd listed line, 7.8 g/ha",21%
same,average phytotox value,"[9]; 2nd listed line, 15.6 g/ha",51%
same,average phytotox value,"[9]; 2nd listed line, 31.25 g/ha",47%
same,average phytotox value,"[9]; 2nd listed line, 62.5 g/ha",68%
same,average phytotox value,Brassica napus wildtype; 7.8 g/ha,42%
same,average phytotox value,Brassica napus wildtype; 15.6 g/ha,56%
same,average phytotox value,Brassica napus wildtype; 31.25 g/ha,70%
same,average phytotox value,Brassica napus wildtype; 62.5 g/ha,83%
same,average phytotox value,[10]; 7.8 g/ha,24%
same,average phytotox value,[10]; 15.6 g/ha,53%
same,average phytotox value,[10]; 31.25 g/ha,62%
same,average phytotox value,[10]; 62.5 g/ha,76%
same,average phytotox value,"[11]; 1st listed line, 7.8 g/ha",7%
same,average phytotox value,"[11]; 1st listed line, 15.6 g/ha",17%
same,average phytotox value,"[11]; 1st listed line, 31.25 g/ha",47%
same,average phytotox value,"[11]; 1st listed line, 62.5 g/ha",54%
same,average phytotox value,"[11]; 2nd listed line, 7.8 g/ha",10%
same,average phytotox value,"[11]; 2nd listed line, 15.6 g/ha",33%
same,average phytotox value,"[11]; 2nd listed line, 31.25 g/ha",68%
same,average phytotox value,"[11]; 2nd listed line, 62.5 g/ha",71%
same,average phytotox value,"[12]; 1st listed line, 7.8 g/ha",34%
same,average phytotox value,"[12]; 1st listed line, 15.6 g/ha",43%
same,average phytotox value,"[12]; 1st listed line, 31.25 g/ha",50%
same,average phytotox value,"[12]; 1st listed line, 62.5 g/ha",73%
same,average phytotox value,"[12]; 2nd listed line, 7.8 g/ha",16%
same,average phytotox value,"[12]; 2nd listed line, 15.6 g/ha",41%
same,average phytotox value,"[12]; 2nd listed line, 31.25 g/ha",62%
same,average phytotox value,"[12]; 2nd listed line, 62.5 g/ha",72%
